Results as given in ChEMBL document CHEMBL5236672, “Discovery of indole-piperazine derivatives as selective histone deacetylase 6 inhibitors with neurite outgrowth-promoting activities and neuroprotective activities” (Bioorg Med Chem Lett, 2023).

How the values were obtained:
[1] = tested on: PC-12; test: Neuroprotective activity in rat PC-12 cells assessed as increase in NGF-mediated neurite outgrowth at 3 uM incubated for 48 hrs by phase contrast microscopic analysis; type: functional
[2] = target: T1, Protein deacetylase HDAC6 (Homo sapiens, UniProt Q9UBN7); test: Inhibition of HDAC6 (unknown origin) using fluorogenic peptide RHKKAc-AMC as substrate by fluorescence-based assay
T1 sequence (Q9UBN7 whole entry): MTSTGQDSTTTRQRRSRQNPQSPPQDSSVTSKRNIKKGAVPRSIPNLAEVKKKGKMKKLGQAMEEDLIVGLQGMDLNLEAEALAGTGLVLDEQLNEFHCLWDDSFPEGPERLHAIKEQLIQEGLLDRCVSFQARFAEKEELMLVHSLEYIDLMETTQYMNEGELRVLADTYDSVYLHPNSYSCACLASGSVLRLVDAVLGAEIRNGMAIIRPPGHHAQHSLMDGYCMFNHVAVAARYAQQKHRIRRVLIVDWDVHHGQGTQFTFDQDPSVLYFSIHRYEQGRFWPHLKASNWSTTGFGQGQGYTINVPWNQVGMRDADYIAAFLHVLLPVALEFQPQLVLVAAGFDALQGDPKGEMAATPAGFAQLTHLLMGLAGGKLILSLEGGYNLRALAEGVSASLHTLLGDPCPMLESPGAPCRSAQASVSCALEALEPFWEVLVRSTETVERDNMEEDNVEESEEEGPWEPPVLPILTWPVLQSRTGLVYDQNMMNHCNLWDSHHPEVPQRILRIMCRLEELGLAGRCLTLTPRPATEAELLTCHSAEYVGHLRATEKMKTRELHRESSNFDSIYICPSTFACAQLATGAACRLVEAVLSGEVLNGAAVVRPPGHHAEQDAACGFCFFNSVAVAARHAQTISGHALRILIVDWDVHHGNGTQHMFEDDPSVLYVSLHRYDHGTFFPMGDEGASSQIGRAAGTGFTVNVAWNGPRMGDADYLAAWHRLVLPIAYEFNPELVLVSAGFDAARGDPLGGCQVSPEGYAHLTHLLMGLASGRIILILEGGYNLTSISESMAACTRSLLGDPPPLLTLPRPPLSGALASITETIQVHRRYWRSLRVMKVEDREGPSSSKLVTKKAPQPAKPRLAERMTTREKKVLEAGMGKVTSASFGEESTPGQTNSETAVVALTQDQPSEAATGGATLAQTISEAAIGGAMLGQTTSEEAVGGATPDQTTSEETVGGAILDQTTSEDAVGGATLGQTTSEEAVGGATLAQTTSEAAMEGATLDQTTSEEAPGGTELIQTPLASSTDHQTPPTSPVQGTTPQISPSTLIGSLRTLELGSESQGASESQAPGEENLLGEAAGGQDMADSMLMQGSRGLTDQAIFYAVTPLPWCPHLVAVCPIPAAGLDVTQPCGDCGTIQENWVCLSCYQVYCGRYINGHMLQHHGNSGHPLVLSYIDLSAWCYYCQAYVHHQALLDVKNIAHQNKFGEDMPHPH

[3] = tested on: PC-12; test: Neuroprotective activity in rat PC-12 cells assessed as increase in NGF-mediated neurite outgrowth at 1 to 10 uM incubated for 48 hrs by phase contrast microscopic analysis; type: functional, cell-based; details: dose 1-10 µM
[4] = target: Histone deacetylase 1 (Homo sapiens, UniProt Q13547); test: Inhibition of HDAC1 (unknown origin) using fluorogenic peptide RHKKAc-AMC as substrate by fluorescence-based assay
Chain of Histone deacetylase 1 (Q13547 whole entry): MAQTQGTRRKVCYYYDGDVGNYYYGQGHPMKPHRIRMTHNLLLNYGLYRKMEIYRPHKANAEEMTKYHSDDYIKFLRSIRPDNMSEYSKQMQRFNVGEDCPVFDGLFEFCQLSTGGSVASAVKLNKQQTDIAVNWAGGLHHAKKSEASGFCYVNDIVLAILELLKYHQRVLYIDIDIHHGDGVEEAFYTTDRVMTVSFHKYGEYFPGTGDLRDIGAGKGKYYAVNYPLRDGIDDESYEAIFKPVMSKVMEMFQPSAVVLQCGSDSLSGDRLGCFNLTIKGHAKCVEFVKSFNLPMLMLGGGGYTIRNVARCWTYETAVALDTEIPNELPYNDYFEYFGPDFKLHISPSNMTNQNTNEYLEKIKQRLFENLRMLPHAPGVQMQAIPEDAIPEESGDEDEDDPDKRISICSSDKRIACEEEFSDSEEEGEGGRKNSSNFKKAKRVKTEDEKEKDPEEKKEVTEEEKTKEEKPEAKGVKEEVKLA

[5] = tested on: PC-12; test: Cytotoxicity against rat PC-12 cells assessed as reduction in cell viability at 10 uM; type: toxicity, cell-based; details: pc-12, 10 µM
[6] = organism: Homo sapiens; test: Selectivity index, ratio of IC50 for inhibition of HDAC1 (unknown origin) to IC50 for inhibition of HDAC6 (unknown origin)
[7] = target: Histone deacetylase 2 (Homo sapiens, UniProt Q92769); test: Inhibition of HDAC2 (unknown origin) using fluorogenic peptide RHKKAc-AMC as substrate by fluorescence-based assay
Chain of Histone deacetylase 2 (Q92769 whole entry): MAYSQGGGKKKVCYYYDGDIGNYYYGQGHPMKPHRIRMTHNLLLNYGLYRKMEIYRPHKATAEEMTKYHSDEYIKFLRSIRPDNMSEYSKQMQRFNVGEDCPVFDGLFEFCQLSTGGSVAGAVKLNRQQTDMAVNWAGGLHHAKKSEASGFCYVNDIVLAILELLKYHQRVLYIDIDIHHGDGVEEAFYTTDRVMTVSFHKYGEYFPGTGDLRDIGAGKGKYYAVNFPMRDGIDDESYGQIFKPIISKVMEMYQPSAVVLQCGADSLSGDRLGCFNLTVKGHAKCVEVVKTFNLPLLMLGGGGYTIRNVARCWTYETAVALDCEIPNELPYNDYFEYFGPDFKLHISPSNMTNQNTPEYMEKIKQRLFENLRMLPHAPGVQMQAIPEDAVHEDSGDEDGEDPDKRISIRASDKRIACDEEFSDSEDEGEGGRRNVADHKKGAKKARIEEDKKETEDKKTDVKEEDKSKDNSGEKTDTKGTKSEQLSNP

[8] = tested on: PC-12; test: Neuroprotective activity against H202-induced oxidative damage in rat PC-12 cells assessed as increase in cell viability at 1 to 10 uM; type: functional, cell-based; details: dose 1-10 µM
[9] = target: Histone deacetylase 3 (Homo sapiens, UniProt O15379); test: Inhibition of HDAC3 (unknown origin) using fluorogenic peptide RHKKAc-AMC as substrate by fluorescence-based assay
Chain of Histone deacetylase 3 (O15379 whole entry): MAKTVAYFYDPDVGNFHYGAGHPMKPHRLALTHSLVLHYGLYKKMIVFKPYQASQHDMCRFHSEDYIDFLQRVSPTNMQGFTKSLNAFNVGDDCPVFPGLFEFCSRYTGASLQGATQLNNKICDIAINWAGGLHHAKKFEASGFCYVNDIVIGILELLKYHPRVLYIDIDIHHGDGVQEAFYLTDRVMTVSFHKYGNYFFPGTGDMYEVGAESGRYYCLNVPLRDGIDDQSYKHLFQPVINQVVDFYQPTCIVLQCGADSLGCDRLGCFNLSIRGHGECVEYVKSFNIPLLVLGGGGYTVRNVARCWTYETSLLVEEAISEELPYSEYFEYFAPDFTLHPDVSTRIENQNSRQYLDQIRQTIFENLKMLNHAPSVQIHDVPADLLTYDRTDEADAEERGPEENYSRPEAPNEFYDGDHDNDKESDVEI

[10] = tested on: PC-12; test: Neuroprotective activity against H202-induced oxidative damage in rat PC-12 cells assessed as increase in cell viability at 10 uM; type: functional
[11] = tested on: PC-12; test: Neuroprotective activity in rat PC-12 cells assessed as increase in NGF-mediated neurite outgrowth at 10 uM incubated for 48 hrs by phase contrast microscopic analysis; type: functional
[12] = target: Histone deacetylase 5 (Homo sapiens, UniProt Q9UQL6); test: Inhibition of HDAC5 (unknown origin) using trifluoroacetyl lysine as substrate by fluorescence-based assay
Chain of Histone deacetylase 5 (Q9UQL6 whole entry): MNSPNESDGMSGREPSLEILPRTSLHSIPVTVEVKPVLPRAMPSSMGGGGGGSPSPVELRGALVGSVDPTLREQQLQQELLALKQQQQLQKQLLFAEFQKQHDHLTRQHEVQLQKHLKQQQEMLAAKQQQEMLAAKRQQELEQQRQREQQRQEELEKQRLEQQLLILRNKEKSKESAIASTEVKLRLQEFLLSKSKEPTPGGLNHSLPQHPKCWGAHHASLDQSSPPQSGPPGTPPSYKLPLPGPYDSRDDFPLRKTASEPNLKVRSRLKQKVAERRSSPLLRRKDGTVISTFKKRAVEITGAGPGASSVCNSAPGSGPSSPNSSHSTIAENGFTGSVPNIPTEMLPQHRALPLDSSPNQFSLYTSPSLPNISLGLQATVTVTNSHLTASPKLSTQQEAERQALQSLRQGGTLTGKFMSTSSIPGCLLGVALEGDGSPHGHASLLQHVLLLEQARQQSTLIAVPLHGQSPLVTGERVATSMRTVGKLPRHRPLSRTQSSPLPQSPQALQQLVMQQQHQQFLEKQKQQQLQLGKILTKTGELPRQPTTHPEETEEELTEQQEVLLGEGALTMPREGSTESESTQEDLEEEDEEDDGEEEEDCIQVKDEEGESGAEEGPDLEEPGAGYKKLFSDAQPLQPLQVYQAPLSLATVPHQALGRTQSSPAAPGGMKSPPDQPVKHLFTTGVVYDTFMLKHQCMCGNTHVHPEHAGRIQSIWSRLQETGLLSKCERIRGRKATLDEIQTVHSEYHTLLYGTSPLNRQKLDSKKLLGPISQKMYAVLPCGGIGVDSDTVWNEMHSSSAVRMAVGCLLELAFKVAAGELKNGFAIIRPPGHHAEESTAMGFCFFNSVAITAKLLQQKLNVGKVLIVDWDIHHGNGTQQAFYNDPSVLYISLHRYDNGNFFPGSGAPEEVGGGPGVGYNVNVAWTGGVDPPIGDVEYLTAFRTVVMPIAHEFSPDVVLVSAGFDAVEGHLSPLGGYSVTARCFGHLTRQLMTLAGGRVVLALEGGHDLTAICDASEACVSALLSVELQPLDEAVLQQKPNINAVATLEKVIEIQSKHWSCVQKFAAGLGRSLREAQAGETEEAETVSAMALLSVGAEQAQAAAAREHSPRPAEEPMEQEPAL

Row | IC50 [2] [µM] | IC50 [4] [µM] | Ratio IC50 [6] | SMILES | Activity [1] [%] | also measured
1 |  |  |  | O=C1CN(Cc2ccc(C(=O)NO)cc2)C(=O)[C@@H](Cc2c[nH]c3ccccc23)N1 | 12.3 | 
2 |  |  |  | O=C(NO)c1ccc(CN2CC(=O)N(Cc3ccccc3)C(Cc3ccccc3)C2=O)cc1 (centres undefined) | 12.3 | 
3 |  |  |  | CN1C(=O)CN(Cc2ccc(C(=O)NO)cc2)C(=O)C1Cc1ccccc1 (centres undefined) | 12.3 | 
4 | 0.0234 | 1.05 | 45 | O=C(NO)c1ccc(CN2CCN(C(=O)c3c[nH]c4cc(OCc5ccccc5)ccc34)CC2)cc1 | 37.3 | Activity [3]: Dose-Dependent Effect; Activity [5]: Toxic
5 | 0.0136 | 1.39 | 102 | Cc1cccc2c(C(=O)N3CCN(Cc4ccc(C(=O)NO)cc4)CC3)c[nH]c12 | 34.7 | Activity [3]: Dose-Dependent Effect; IC50 [7]: 2.25 µM; Activity [8]: Dose-Dependent Effect; Activity [5]: 39.1%; IC50 [9]: 1.85 µM; Activity [10]: 78.5%; Activity [11]: 12.3%; IC50 [12]: > 50 µM
6 | 0.014 | 1.19 | 85 | O=C(NO)c1ccc(CN2CCN(C(=O)c3c[nH]c4cc(F)ccc34)CC2)cc1 | 12.3 | 
7 |  |  |  | C=CCN1C(=O)CN(Cc2ccc(C(=O)NO)cc2)C(=O)C1Cc1ccccc1 (centres undefined) | 12.3 | 
8 | 0.0785 | > 50 |  | O=C(NO)c1ccc(CN2CCN(C(=O)c3c[nH]c4cccc(Cc5ccccc5)c34)CC2)cc1 | 31.8 | Activity [3]: Dose-Dependent Effect
9 | 0.026 | 1.43 | 55 | O=C(NO)c1ccc(CN2CCN(C(=O)c3c[nH]c4ccc(Cl)cc34)CC2)cc1 | 12.3 | 
10 | 0.0144 | 1.26 | 87 | O=C(NO)c1ccc(CN2CCN(C(=O)c3c[nH]c4ccccc34)CC2)cc1 | 12.3 | 
11 | 0.0552 | 2.18 | 39 | Cn1cc(C(=O)N2CCN(Cc3ccc(C(=O)NO)cc3)CC2)c2ccccc21 | 27.5 | 
12 | 0.0885 |  |  | O=C(NO)c1ccc(CN2CCN(C(=O)c3cc4ccccc4[nH]3)CC2)cc1 |  | 
13 |  |  |  | CN1CCc2c(c3ccccc3n2Cc2ccc(C(=O)NO)cc2)C1 |  | Activity [8]: Dose-Dependent Effect
